From publication PMC317294 (BMC Pharmacology, 2003)

Legend:
[1] = target: T1, Ala^348,353 hMOR (Homo sapiens, UniProt P35372, C348A/C353A); assay type: binding
[2] = target: T1, Ala^348,353 hMOR; assay: biochemical; details: read-out: maximal efficacy as percentage of stimulation above basal levels
[3] = target: T2, human mu opioid receptor (hMOR) (Homo sapiens, UniProt P35372); assay: biochemical; details: read-out: maximal efficacy as percentage of stimulation above basal levels
[4] = target: T1, Ala^348,353 hMOR; assay type: cell-based
[5] = target: T2, human mu opioid receptor (hMOR); assay type: cell-based

T1 sequence (P35372 whole entry C348A/C353A): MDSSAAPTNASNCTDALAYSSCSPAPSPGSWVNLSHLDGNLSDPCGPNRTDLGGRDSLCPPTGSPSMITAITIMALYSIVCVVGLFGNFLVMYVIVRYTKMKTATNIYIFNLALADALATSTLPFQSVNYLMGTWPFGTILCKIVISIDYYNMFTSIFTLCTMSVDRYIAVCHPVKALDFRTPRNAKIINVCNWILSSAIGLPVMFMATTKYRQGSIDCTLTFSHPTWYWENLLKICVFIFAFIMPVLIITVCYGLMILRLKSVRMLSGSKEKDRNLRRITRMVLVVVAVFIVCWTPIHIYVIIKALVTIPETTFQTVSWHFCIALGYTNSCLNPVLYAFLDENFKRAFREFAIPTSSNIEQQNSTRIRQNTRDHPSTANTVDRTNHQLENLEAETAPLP
T2 sequence (P35372 whole entry): as the sequence (P35372 whole entry C348A/C353A) above, with A348C, A353C counted along it

SMILES: C[C@@H](NC(=O)[C@@H](N)Cc1ccc(O)cc1)C(=O)N[C@@H](Cc1ccccc1)C(=O)NCC(=O)N[C@@H](Cc1ccc(O)cc1)C(=O)N1CCC[C@H]1C(=O)N[C@@H](CO)C(N)=O [Dermorphin]
- increase in binding affinity for Ala^348,353 hMOR compared to hMOR [1]: approximately 20 fold

SMILES: C[C@@H](NC(=O)[C@@H](N)Cc1ccc(O)cc1)C(=O)NCC(=O)N(C)[C@@H](Cc1ccccc1)C(=O)NCCO [DAMGO, [D-Ala^2, N-Me-Phe^4, Gly^5-ol]-enkephalin]
- Emax [2]: 164 ± 6%
- Emax [3]: 366 ± 23%

SMILES: COc1cccc2c1[C@]13CCN(CC4CC4)[C@H](C2)[C@]1(OC)CCC(=O)C3 [Cyprodime]
- Ala^348,353 hMOR expression level after ligand treatment [4]: 245 ± 20%
- hMOR expression level after ligand treatment [5]: 103 ± 9%
